We go through 1 compound from patent US4435404A, “Carbostyril derivatives” (priority 1980, dated 1984).

Each structure is given as a SMILES string. Bounds are passed on as bounds.

Series [1] has as its system collagen-induced aggregation in rabbit platelet. Put plainly: Inhibition effect on collagen-induced aggregation in rabbit platelet. The class given is cell-based. To be noted: Oryctolagus cuniculus, Platelet, read-out: Inhibition effect on collagen-induced aggregation. Put shortly:
(§1)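 Aggregation was followed by transmittance at 37 °C with 1,100 rpm stirring, using rabbit PRP preincubated 1 min with test compound. Inhibition was expressed relative to controls, with aspirin as comparator.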

For series [2], the system named is ADP-induced aggregation in rabbit platelet. Put plainly: Inhibition effect on ADP-induced aggregation in rabbit platelet. To be noted: Oryctolagus cuniculus, Platelet. The class given is cell-based. Put shortly:
as §1

The next series deals with bastard dog. As to the kind of experiment: Increasing effect of cerebral blood flow. The class given is in vivo. To be noted: dosage 100 μg/kg, profunda femoris vein. As for the experimental part: Thus, a bastard dog (male, 12-20 kg of body weight) was fixed in a prone (position) and was anesthetized with 20 mg/kg of pentobarbital sodium and made forced breathing to kept the frequency of respiration at 20 times/minutes. Then, the skull was bared and the surface bone was removed to expose the venous sinus by using grinder and the venous blood was took out from the venas which was cannulizated. The amount of venous blood flow was measured by using an electromagnetic blood flow meter and next measured by using drop-counter by measuring the number of drops of blood per 10 seconds.
The increasing effect of cerebral blood flow was calculated by comparing the number of blood drops in 30 seconds at the peak of increasement shown before and after the administration of compound to be tested. The each of compounds to be tested was dissolved in dimethylformamide and diluted with physiological saline solution and administered through a cannule being inserted into the profunda femoris vein.

Series [3] concerns Gold blatt type renoprival hypertension rats (RHR). As to the kind of experiment: Hypotensive effect, Tail-cuff method, RHR. To be noted: 30 mg/kg oral, mean value ± standard deviation. The class given is in vivo, rat. As for the experimental part:
Hypotensive effect of the compounds were measured by determining the maximum blood pressure of the test animals according to a procedure of Tail-cuff method.
Test animals used were the following two types.
(1) Gold blatt type renoprival hypertension rats (RHR)
Wistar strain male rats having, 160-180 g of body weight, were anesthetized with ether and the left-side renal artery was pluged with a silver clip having 0.2 mm inside diameter, while the right-side renal artery was kept as it was without operation. Four (4) weeks after the operation, rats having the maximum blood pressure over 150 mmHg were selected and used as test animals which were abstained from food for overnight.
Each of compounds to be tested were administered orally and the blood pressure was measured before the administration and 1, 2, 4, 6 and 8 hours after the administration. The blood pressure was measured by using Recorder (Rectihoriz type 8S, San-ei Instrument) and Electrosthygmomanometer PE-300 (Macro Bio-systems, Houston, Tex.).

A further series can be described thus: Acute Toxicity Test. To be noted: mouse, in vivo; male mice, oral administration. As for the experimental part: The test compounds were administered orally to the mice and LD50 (mg/kg) of the compounds was determined.
A further series deals with Wistar strain male rats. Put plainly: Test of increasing effect of heart rate. The class given is in vivo, rat. To be noted: 30 mg/kg oral, 60 minutes after the administration. As for the experimental part:
Wistar strain male rats, having 180-230 g of body weight, were abstained from food for 24 hours, the electrocardiograms introduced from the second induction period were recorded on oscillograph. The heart rate was calculated from the electrocardiograms by observing them for 10 seconds several times. […] 60 Minutes after the administration, the heart rate was measured and increasing effect of the heart rate was calculated. Generally, an average heart rate of an usual Wistar strain male rat is about 320 beat/minute.

In the case of `O=C(CCCOc1ccc2[nH]c(=O)ccc2c1)N(CCO)C1CCCCC1` [No. 1, 6-{3-[N-(2-hydroxyethyl)-N-cyclohexylaminocarbonyl]propoxy}carbostyril], the inhibition at 10 µM in series [1] (concentration of the test compound solution 10^-5 mole) amounted to 100%; in series [2] (concentration of the test compound solution 10^-5 mole, read-out: Inhibition effect on ADP-induced aggregation), 86%. Also, the inhibition at 1 µM in series [1] (concentration of the test compound solution 10^-6 mole) stood at 100%; in series [2] (concentration of the test compound solution 10^-6 mole, read-out: Inhibition effect on ADP-induced aggregation), 45%. Further, the inhibition at 0.1 µM in series [1] (concentration of the test compound solution 10^-7 mole) was 60.1%. This compound also showed an inhibition at 100 µM in series [2] (concentration of the test compound solution 10^-4 mole) of 100%. In addition, in the series on bastard dog, the “Increasing effect of cerebral blood flow” value came to 89.8%. For the same compound, the “Maximum blood pressure after the administration (difference)” value in series [3] (1 hour) was -27.0 ± 14.0 mmHg; in series [3] (2 hours), -28.6 ± 16.4 mmHg; in series [3] (4 hours), -32.4 ± 15.2 mmHg; in series [3] (6 hours), -35.0 ± 11.5 mmHg; in series [3] (8 hours), -41.3 ± 17.2 mmHg. This compound displayed an LD50 in the series “Acute Toxicity Test” above 1000 mg/kg. In addition, in the series on Wistar strain male rats, the “Increasing effect of heart rate” value is listed as 42 Beat/min.

For orientation: inhibition means the relative decrease from the control value, in per cent. What is called LD50 is the dose at which mortality reaches 50%. The low end stands for greater toxicity, the high end for lower toxicity.
